According to paper PMC5218480 (PLoS ONE, 2017):
Read-outs that look alike come from different tables or passages of the source.

Key:
[1] = test system: MV-4-11 and HL-60 cells; experiment: Flow cytometry, cell cycle (EdU, S phase); format: cell-based, human; conditions: single agent, 72 hours
Procedure: (§1) All compounds and/or solvent DMSO were added concurrently at the indicated doses. Flow cytometry was performed to measure surface level of CD11b, cell cycle distribution, and induction of apoptosis. CD11b and apoptosis were analyzed on a FC500 flow cytometer ([…]) and cell cycle profiled on an Attune NxT (Life Technologies).
EdU labeled cells were then mixed with FxCycle Far Red Stain (Life Technologies) and 100 μg RNase A cocktail (Life technologies) for 30 minutes before flow cytometry analysis. Edu positive populations representing S phase cells were quantified.

[2] = test system: Kasumi-1 cells; experiment: Cell viability assay (CellTiter-Glo); conditions: read-out: IC50 cell viability Kasumi-1; 72 hours
Procedure: (§3) MV-4-11, Kasumi-1, and HL-60 AML cell lines were all obtained from ATCC. MOLM-13 and NB-4 cell lines were obtained from DSMZ. […] The identity of each cell line was validated and documented by the suppliers. All experiments were performed with cells maintained at low passage numbers.
(§4) Compounds and/or solvent dimethyl sulfoxide (DMSO) were added at the same time using an HP D300 digital dispenser (Hewlett Packard) in triplicate or quadruplicate and incubated for 72 hours at 37°C. Viability was measured by adding 25 μL CellTiter-Glo (Promega), incubating for 10 minutes, and measuring luminescence on a SpectraMax (Molecular Devices). […] CI < 1 indicates synergism, CI = 1 indicates additivity, and CI > 1 indicates antagonism.

[3] = test system: five human AML cell lines (MV-4-11, Kasumi-1, HL-60, MOLM-13, NB-4); experiment: Cell viability assay, summary over five human AML cell lines; conditions: 72 hours
Procedure: as §3, §4

[4] = molecular target: T1, HDAC1 (Homo sapiens, UniProt Q13547); experiment: HDAC enzyme assay, in vitro biochemical
T1 construct: purchased BPS Biosciences
Procedure: (§2) In vitro biochemical assays were performed as described previously. Specifically, compounds were dissolved and diluted in assay buffer (50 mM HEPES, pH 7.4, 100 mM KCl, 0.001% Tween-20, 0.05% BSA, and 20 μM Tris (2-carboxyethyl) phosphine) to 6-fold the final concentration. […] The amount of substrate (acetyl-lysine tripeptide) used for each enzyme was equal to the Michaelis constant (Km), as determined by a titration curve. Substrate was diluted in assay buffer to 6-fold of the final concentration with 0.3 μM sequencing grade trypsin (Sigma-Aldrich). The substrate/trypsin mix was added to the enzyme/compound mix and the plate was shaken for 5 seconds and then placed into a SpectraMax M5 microtiter (Molecular Devices) plate reader. The enzymatic reaction was monitored over 30 minutes for release of […] after deacetylation of the lysine side chain in the peptide substrate, and the linear rate of the reaction was calculated.

[5] = molecular target: T2, HDAC2 (Homo sapiens, UniProt Q92769); experiment: HDAC enzyme assay, in vitro biochemical
T2 construct: purchased BPS Biosciences
Procedure: as §2

[6] = molecular target: T3, HDAC3 (Homo sapiens, UniProt O15379); experiment: HDAC enzyme assay, in vitro biochemical; conditions: pre-incubated 24 hours at 4°C; n = 3; read-out: IC50 against HDAC3
T3 construct: purchased BPS Biosciences
Procedure: as §2

[7] = test system: MV-4-11 and HL-60 cells; experiment: Flow cytometry, surface level of CD11b (differentiation); format: cell-based, human; conditions: single agent, 72 hours
Procedure: as §1
The frequency of CD11b positive cells out of total viable cells identified by forward and side scatter profile was quantified.

[8] = test system: MV-4-11 cells; experiment: Cell viability assay (CellTiter-Glo), single agent and combination; conditions: read-out: IC50 cell viability MV-4-11; 72 hours
Procedure: as §3, §4

[9] = test system: HL-60 cells; experiment: Cell viability assay (CellTiter-Glo); conditions: read-out: IC50 cell viability HL-60; 72 hours
Procedure: as §3, §4

[10] = test system: MV-4-11, Kasumi-1 and HL-60 cell lines; experiment: Histone acetylation by immunoblotting; format: cell-based, human; conditions: 24 hours, increasing doses
Source text: The EpiQuick Total Histone Extraction kit (Epigentek) was used to isolate histones. Histone lysates were size separated on Bolt 10% Bis-Tris gradient gels (Life Technologies), transferred to polyvinylidene difluoride membranes, blocked in 5% BSA, and detected using standard western blotting techniques.

[11] = test system: MV-4-11 and HL-60 cells; experiment: Quantitative real time PCR (qPCR) of CDKN1A, CDKN1C, GATA2, HES1; format: cell-based, human; conditions: MV-4-11 and HL-60, 48 hours
Procedure: RNA isolations were performed on a Qiacube (Qiagen) using the RNeasy Micro Kit (Qiagen) according to manufacturer’s protocol. RNA was converted to cDNA using the High Capacity RNA-to-cDNA Kit (Life Technologies) and qPCR performed using the Taqman Gene Expression Max Mix according to manufacturer’s protocol (Applied Bioscience). The following ThermoFisher taqman probes were used: GATA2 (Hs01060665_g1), GAPDH (Hs0275899_g1), ACTB (Hs00231119_m1), CDKN1A (Hs00355782_m1), CDKN1C (Hs00175938_m1), HES1 (Hs00172878_m1).

[12] = test system: live leukemic cells of fresh bone marrow samples from AML patients; conditions: read-out: mean IC50, proliferation of primary leukemic cells; 96 hours, n = 38 patient samples
[13] = test system: MOLM-13 cells; experiment: Cell viability assay (CellTiter-Glo), single agent and combination; conditions: read-out: IC50 cell viability MOLM-13; 72 hours
Procedure: as §3, §4

[14] = test system: MV-4-11 and HL-60 cells; experiment: Flow cytometry, apoptosis (Annexin V); format: cell-based, human; conditions: single agent, 96 hours
Procedure: as §1
Annexin V-positive populations were quantified.

[15] = test system: NB-4 cells; experiment: Cell viability assay (CellTiter-Glo); conditions: read-out: IC50 cell viability NB-4; 72 hours
Procedure: as §3
Compounds and/or solvent dimethyl sulfoxide (DMSO) were added at the same time using an HP D300 digital dispenser (Hewlett Packard) in triplicate or quadruplicate and incubated for 72 hours at 37°C. Viability was measured by adding 25 μL CellTiter-Glo (Promega), incubating for 10 minutes, and measuring luminescence on a SpectraMax (Molecular Devices).

T2 sequence (Q92769 whole entry): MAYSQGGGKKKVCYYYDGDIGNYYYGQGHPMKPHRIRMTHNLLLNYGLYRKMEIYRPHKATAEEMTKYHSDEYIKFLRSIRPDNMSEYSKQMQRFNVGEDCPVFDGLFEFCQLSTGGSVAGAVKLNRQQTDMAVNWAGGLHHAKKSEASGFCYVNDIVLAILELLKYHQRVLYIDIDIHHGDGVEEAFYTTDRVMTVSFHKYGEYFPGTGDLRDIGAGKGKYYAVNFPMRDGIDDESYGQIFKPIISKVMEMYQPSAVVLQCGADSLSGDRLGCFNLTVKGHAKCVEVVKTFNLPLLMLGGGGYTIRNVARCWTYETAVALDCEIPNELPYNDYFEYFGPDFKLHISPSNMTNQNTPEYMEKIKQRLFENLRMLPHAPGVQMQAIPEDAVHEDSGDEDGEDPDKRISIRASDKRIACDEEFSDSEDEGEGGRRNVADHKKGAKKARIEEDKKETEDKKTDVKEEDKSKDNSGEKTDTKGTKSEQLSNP
T1 sequence (Q13547 whole entry): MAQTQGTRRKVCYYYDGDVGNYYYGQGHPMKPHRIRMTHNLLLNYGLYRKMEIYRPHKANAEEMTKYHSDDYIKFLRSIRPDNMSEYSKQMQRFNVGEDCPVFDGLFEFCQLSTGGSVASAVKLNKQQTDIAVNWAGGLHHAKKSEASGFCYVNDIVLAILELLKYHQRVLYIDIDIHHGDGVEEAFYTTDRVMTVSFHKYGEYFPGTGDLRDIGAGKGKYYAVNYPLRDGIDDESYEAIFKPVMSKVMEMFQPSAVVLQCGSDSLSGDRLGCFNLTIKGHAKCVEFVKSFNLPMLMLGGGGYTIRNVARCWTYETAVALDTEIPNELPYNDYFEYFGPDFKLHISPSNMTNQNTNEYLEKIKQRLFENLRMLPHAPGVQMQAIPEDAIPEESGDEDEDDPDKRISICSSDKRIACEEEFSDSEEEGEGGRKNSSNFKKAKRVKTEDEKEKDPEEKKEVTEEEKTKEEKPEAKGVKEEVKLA
T3 sequence (O15379 whole entry): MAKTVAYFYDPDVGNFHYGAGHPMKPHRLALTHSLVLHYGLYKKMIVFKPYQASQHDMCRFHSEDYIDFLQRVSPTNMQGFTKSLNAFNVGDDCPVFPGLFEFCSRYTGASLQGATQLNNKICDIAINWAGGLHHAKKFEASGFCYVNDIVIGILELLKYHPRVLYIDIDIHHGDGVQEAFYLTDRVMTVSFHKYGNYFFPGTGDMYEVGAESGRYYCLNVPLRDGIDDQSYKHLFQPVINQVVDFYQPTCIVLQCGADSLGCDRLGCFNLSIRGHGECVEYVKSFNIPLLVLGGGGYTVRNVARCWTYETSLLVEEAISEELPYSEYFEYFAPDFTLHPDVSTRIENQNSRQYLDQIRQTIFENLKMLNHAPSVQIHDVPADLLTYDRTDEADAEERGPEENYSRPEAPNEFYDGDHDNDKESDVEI
T3 sequence (Q9Y618 395-489 partner limits assumed): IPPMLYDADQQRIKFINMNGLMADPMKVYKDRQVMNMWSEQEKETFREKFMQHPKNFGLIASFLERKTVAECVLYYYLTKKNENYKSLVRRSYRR

## Nc1ccc(-c2cccs2)cc1NC(=O)c1ccc2nc(N3CCNCC3)ccc2c1 [ACY-957]
[1]
  cells in S phase: dose-dependent reduction of cells in S phase
[2]
  IC50: 1.6 µM
[3]; read-out: IC50 values cell viability, range, five human AML cell lines, both compounds
  IC50: 0.8 to 3.3 µM
[3]; read-out: average IC50 value, viability of AML cells, average of five AML cell lines
  IC50: 1.5 µM
[4]
  selectivity for HDAC1 over HDAC3: more than 150 fold
[4]; pre-incubated 24 hours at 4°C, n = 3, read-out: IC50 against HDAC1
  IC50: 0.0072 µM
[5]
  selectivity for HDAC2 over HDAC3: approximately 50 fold
[5]; pre-incubated 24 hours at 4°C, n = 3, read-out: IC50 against HDAC2
  IC50: 0.026 µM
[6]
  IC50: 1.16 µM
[7]
  differentiation, surface expression of CD11b: dose-dependent induction of differentiation
[8]
  IC50: 0.8 µM
[9]
  IC50: 2.2 µM
[10]
  acetylation on histone H2B lysine 5 (H2BK5ac) and histone H3 lysine 56 (H3K56ac): dose-dependent accumulation
[11]
  expression of CDKN1A, CDKN1C, GATA2 and HES1 (qPCR): up-regulated
[12]
  IC50: 1.1 µM
[13]
  IC50: 1.6 µM
[14]
  apoptosis, staining for annexin V: increased staining for annexin V
[15]
  IC50: 1.6 µM
